Results on one compound are retold here after patent US20060287273A1, “Methods and reagents for inhibiting cell proliferation” (priority 2005, published 2006).

The assay relates to MDA-MB-435S cells. Kind of assay: TUNEL assay analyzed by FACS (apoptosis). In kind it is cell-based, human. As to conditions: 48 hours post-transfection; staurosporine 1 uM; versus control siRNA. For orientation: Flow cytometry measures light scatter and fluorescence of single cells or particles in a stream.

SMILES strings stand for the structures.

Protocol: To examine this possibility, we utilized the TUNEL assay, which measures the appearance of free DNA ends that are the result of DNA fragmentation that occurs in the latter stages of apoptosis. MDA-MB-435S cells in 6 well dishes were transfected with the corresponding siRNA or treated with 1 uM staurosporine. 48 hours post-transfection, any detached cells were combined with cells detached using trypsin and the cells were washed, fixed with paraformaldehyde, subjected to TUNEL assay, and analyzed by FACS. […] Cells to be assayed were trypsinized, washed twice with PBS, followed by fixation for 20 min. in 1.5% paraformaldehyde in PBS at 4° C. with gentle mixing. The cells were then washed twice with PBS, suspended in 70% ethanol at 4° C., and stored at −20° C. until assayed. When assayed, the cells were washed twice with PBS and then resuspended in 50 μl of Tunel assay buffer consisting of 100 mM potassium cacodylate (pH 7.2), 2 mM CoCl2, 0.2 mM dithiotheitol, 3.3 nM fluorescein-conjugated dUTP, 13 nM DATP and 11 units of terminal deoxynucleotidyl transferase for 90 minutes at 37° C. The cells were then washed twice with PBS and analyzed by FACS sorting.

As to `CN[C@@H]1C[C@H]2O[C@@](C)([C@@H]1OC)n1c3ccccc3c3c4c(c5c6ccccc6n2c5c31)C(=O)NC4` [Staurosporine], the “apoptosis, incorporation of fluorescein-labeled dUTP” value is “most dramatic increase in apoptotic cells”.
